Measured values reported in US10899738B2 (THE REGENTS OF THE UNIVERSITY OF MICHIGAN, priority 2016, dated 2021).

Target: menin protein (Homo sapiens (Human), UniProt O00255)
Experiment: biochemical
Format: binding
Conditions: FP competitive binding, menin protein 4 nM, FAM-MM2 probe 2 nM; for IC50: read-out: Menin Binding Affinity IC50
Procedure, shortened: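 Test compounds displaced FAM-MM2 (2 nM) from 4 nM menin after 30 min equilibration at room temperature in PBS buffer containing bovine γ-globulin, 4% DMSO and Triton X-100. Binding was followed by fluorescence polarization. Competition curves were fitted by nonlinear regression to give IC50 and Ki.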

menin protein, sequence (O00255 whole entry): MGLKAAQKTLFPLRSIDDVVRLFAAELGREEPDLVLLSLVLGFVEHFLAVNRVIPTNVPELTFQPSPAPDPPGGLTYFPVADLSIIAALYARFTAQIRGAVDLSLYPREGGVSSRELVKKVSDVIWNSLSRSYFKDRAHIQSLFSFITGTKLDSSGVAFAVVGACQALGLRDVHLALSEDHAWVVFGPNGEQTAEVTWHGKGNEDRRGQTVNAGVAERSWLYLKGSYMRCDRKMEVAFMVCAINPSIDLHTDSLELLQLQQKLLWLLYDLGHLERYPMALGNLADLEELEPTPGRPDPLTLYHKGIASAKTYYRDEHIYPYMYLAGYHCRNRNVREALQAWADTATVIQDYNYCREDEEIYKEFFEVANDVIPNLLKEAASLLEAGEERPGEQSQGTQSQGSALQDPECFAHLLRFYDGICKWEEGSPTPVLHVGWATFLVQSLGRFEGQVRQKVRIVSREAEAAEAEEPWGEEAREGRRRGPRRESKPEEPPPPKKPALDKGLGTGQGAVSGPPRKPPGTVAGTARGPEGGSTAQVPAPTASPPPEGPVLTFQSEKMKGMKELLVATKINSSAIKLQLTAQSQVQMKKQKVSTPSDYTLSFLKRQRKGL

Structure (SMILES)	IC50	Menin Binding Affinity IC50 (μM)
O=S(=O)(c1ccc(N2CC(CN3CCC(C4(C5CCCC5)NCCc5ccccc54)CC3)C2)cc1)C1CCOCC1 (centres unmarked) [compound 97, 1-cyclopentyl-1-(1-((1-(4-((tetrahydro-2H-pyran-4-yl)sulfonyl)phenyl)azetidin-3-yl)methyl)piperidin-4-yl)-1,2,3,4-tetrahydroisoquinoline]	0.049 µM	–
Cn1cccc1S(=O)(=O)c1ccc(N2CC(CN3CCC(C4(C5CCCC5)NCCc5ccccc54)CC3)C2)cc1 (centres unmarked) [compound 98, 1-cyclopentyl-1-(1-((1-(4-((1-methyl-1H-pyrrol-2-yl)sulfonyl)phenyl)azetidin-3-yl)methyl)piperidin-4-yl)-1,2,3,4-tetrahydroisoquinoline]	0.021 µM	–
O=S(=O)(c1ccc(CCN2CCc3cc(C4(C5CCCC5)NCCc5ccccc54)ccc3C2)cc1)C1CC1 (centres unmarked) [compound 99, 1-cyclopentyl-2′-(4-(cyclopropylsulfonyl)phenethyl)-1,1′,2,2′,3,3′,4,4′-octahydro-1,6′-biisoquinoline]	0.802 µM	–
O=C(Cc1ccc(S(=O)(=O)C2CC2)cc1)N1CCc2cc(C3(C4CCCC4)NCCc4ccccc43)ccc2C1 (centres unmarked) [compound 100, 1-(1-cyclopentyl-1,2,3,3′,4,4′-hexahydro-[1,6′-biisoquinolin]-2′-(1′H)-yl)-2-(4-(cyclopropylsulfonyl)phenyl) ethan-1-one]	4.7 µM	–
N#Cc1ccc(OCCCN2CCC(CC3(C4CCCC4)NCCc4ccccc43)CC2)cc1 (centres unmarked) [compound 104, 4-(3-(4-((1-cyclopentyl-1,2,3,4-tetrahydroisoquinolin-1-yl)methyl)piperidin-1-yl)propoxy)benzonitrile]	32.7 µM	–
N#Cc1ccc(OCCN2CCC(CC3(C4CCCC4)NCCc4ccccc43)CC2)cc1 (centres unmarked) [compound 105, 4-(2-(4-((1-cyclopentyl-1,2,3,4-tetrahydroisoquinolin-1-yl)methyl)piperidin-1-yl)ethoxy)benzonitrile]	20.2 µM	–
c1ccc(CN2CCC(CC3(C4CCCC4)NCCc4ccccc43)CC2)cc1 (centres unmarked) [compound 106, 1-((1-benzylpiperidin-4-yl)methyl)-1-cyclopentyl-1,2,3,4-tetrahydroisoquinoline]	84.1 µM	–
c1ccc2c(c1)CCNC2(CC1CCNCC1)C1CCCC1 (centres unmarked) [compound 107, 1-cyclopentyl-1-(piperidin-4-ylmethyl)-1,2,3,4-tetrahydroisoquinoline]	299 µM	–
N#Cc1ccc(OCCCN2CCC(C3(C4CCCC4)NCCc4ccccc43)C2)cc1 (centres unmarked) [compound 108, 4-(3-(3-(1-cyclopentyl-1,2,3,4-tetrahydroisoquinolin-1-yl)pyrrolidin-1-yl)propoxy)benzonitrile]	56.5 µM	–
N#Cc1ccc(N2CC(CN3CCC(C4(C5CCCC5)NCCc5ccccc54)CC3)C2)cn1 (centres unmarked) [compound 109, 5-(3-((4-(1-cyclopentyl-1,2,3,4-tetrahydroisoquinolin-1-yl)piperidin-1-yl)methyl)azetidin-1-yl)picolinonitrile]	0.825 µM	–
N#Cc1ccc(N2CC(CN3CCC(C4(C5CCCC5)NCCc5ccccc54)CC3)C2)nc1 (centres unmarked) [compound 110, 6-(3-((4-(1-cyclopentyl-1,2,3,4-tetrahydroisoquinolin-1-yl)piperidin-1-yl)methyl)azetidin-1-yl)nicotinonitrile]	575 µM	–
N#Cc1cc2cc(CN3CCC(CC4(C5CCCC5)NCCc5ccccc54)CC3)ccc2[nH]1 (centres unmarked) [compound 112, 5-((4-((1-cyclopentyl-1,2,3,4-tetrahydroisoquinolin-1-yl)methyl)piperidin-1-yl)methyl)-1H-indole-2-carbonitrile]	41.6 µM	–
N#Cc1cc2cc(CN3CCC(C4(C5CCCC5)NCCc5ccccc54)CC3)ccc2[nH]1 (centres unmarked) [compound 114, 5-((4-(1-cyclopentyl-1,2,3,4-tetrahydroisoquinolin-1-yl)piperidin-1-yl)methyl)-1H-indol-2-carbonitrile]	32.6 µM	–
N#Cc1ccc(N2CCCC(CN3CCC(C4(C5CCCC5)NCCc5ccccc54)CC3)C2)cc1 (centres unmarked) [compound 115, 4-(3-((4-(1-cyclopentyl-1,2,3,4-tetrahydroisoquinolin-1-yl)piperidin-1-yl)methyl)piperidin-1-yl)benzonitrile]	4 µM	–
CCS(=O)(=O)c1ccc(N2CC(C(=O)N3CCC(C4(C5CCCC5)NCCc5c(F)cccc54)CC3)C2)cc1 (centres unmarked) [compound 116, (4-(1-cyclopentyl-5-fluoro-1,2,3,4-tetrahydroisoquinolin-1-yl)piperidin-1-yl)(1-(4-(ethylsulfonyl)phenyl)azetidin-3-yl)methanone]	6 µM	–
N#Cc1cc2ccc(C(=O)N3CCC(CC4(C5CCCC5)NCCc5ccccc54)CC3)cc2[nH]1 (centres unmarked) [compound 118, 6-(4-((1-cyclopentyl-1,2,3,4-tetrahydroisoquinolin-1-yl)methyl)piperidine-1-carbonyl)-1H-indole-2-carbonitrile]	21.8 µM	–

Structure (SMILES)	IC50	Menin Binding Affinity IC50 (μM)
CC1CN(CCCOc2ccc(C#N)cc2)CCC1C(C#N)(c1ccccc1)C1CCCC1 (centres unmarked) [compound 120, 4-(3-(4-(cyano(cyclopentyl)(phenyl)methyl)-3-methylpiperidin-1-yl)propoxy)benzonitrile]	5.7 µM	–
C[C@@H]1CC(C(C#N)(c2ccccc2)C2CCCC2)C[C@H](C)N1CCCOc1ccc(C#N)cc1 (stereo partly drawn) [compound 121, 4-(3-((2S,6R)-4-(cyano(cyclopentyl)(phenyl)methyl)-2,6-dimethylpiperidin-1-yl)propoxy)benzonitrile]	13.1 µM	–
O=C(c1ccn(-c2ccc(S(=O)(=O)C3CC3)cc2)c1)N1CCC(C2(C3CCCC3)NCCc3ccccc32)CC1 (centres unmarked) [compound 122, (4-(1-cyclopentyl-1,2,3,4-tetrahydroisoquinolin-1-yl)piperidin-1-yl)(1-(4-(cyclopropylsulfonyl)phenyl)-1H-pyrrol-3-yl)methanone]	57.5 µM	–
O=S(=O)(c1ccc(-n2ccc(CN3CCC(C4(C5CCCC5)NCCc5c(F)cccc54)CC3)c2)cc1)C1CC1 (centres unmarked) [compound 123, 1-cyclopentyl-1-(1-((1-(4-(cyclopropylsulfonyl)phenyl)-1H-pyrrol-3-yl)methyl)piperidin-4-yl)-5-fluoro-1,2,3,4-tetrahydroisoquinoline]	–	No inhibition
N#Cc1ccc(OCCCNc2ncc(C(O)(c3ccccc3)C3CCCC3)cn2)cc1 (centres unmarked) [compound 124, 4-(3-((5-(cyclopentyl(hydroxy)(phenyl)methyl)pyrimidin-2-yl)amino)propoxy)benzonitrile]	–	No inhibition
N#Cc1ccc(OCCCNc2ccc(C(O)(c3ccccc3)C3CCCC3)cn2)cc1 (centres unmarked) [compound 125, 4-(3-((5-(cyclopentyl(hydroxy)(phenyl)methyl)pyridin-2-yl)amino)propoxy)benzonitrile]	–	No inhibition
N#CC(c1ccccc1)(C1CCCC1)C1CCN(CCCOc2ccc(S(=O)(=O)c3ccccc3)cc2)CC1 (centres unmarked) [compound 126, 2-cyclopentyl-2-phenyl-2-(1-(3-(4-(phenylsulfonyl)phenoxy)propyl)piperidin-4-yl)acetonitrile]	58.4 µM	–
CC(COc1ccc(C#N)cc1)CN1CCC(C(C#N)(c2ccccc2)C2CCCC2)CC1 (centres unmarked) [compound 127, 4-(3-(4-(cyano(cyclopentyl)(phenyl)methyl)piperidin-1-yl)-2-methylpropoxy)benzonitrile]	294 µM	–
N#Cc1ccc(N2CC(C(=O)N3CCC(C4(C5CCCC5)NCCc5ccccc54)CC3)C2)cc1 (centres unmarked) [compound 128, 4-(3-(4-(1-cyclopentyl-1,2,3,4-tetrahydroisoquinolin-1-yl)piperidine-1-carbonyl)azetidin-1-yl)benzonitrile]	4.1 µM	–
CS(=O)(=O)c1ccc(N2CC(CN3CCC(C4(C5CCCC5)NCCc5ccccc54)CC3)C2)cc1 (centres unmarked) [compound 132, 1-cyclopentyl-1-(1-((1-(4-(methylsulfonyl)phenyl)azetidin-3-yl)methyl)piperidin-4-yl)-1,2,3,4-tetrahydroisoquinoline]	0.077 µM	–
Cc1cc(C#N)ccc1N1CC(CN2CCC(C3(C4CCCC4)NCCc4ccccc43)CC2)C1 (centres unmarked) [compound 138, 4-(3-((4-(1-cyclopentyl-1,2,3,4-tetrahydroisoquinolin-1-yl)piperidin-1-yl)methyl)azetidin-1-yl)-3-methylbenzonitrile]	0.099 µM	–
N#Cc1ccc(N2CC(CN3CCC(C4(C5CCCC5)NCCc5ccccc54)CC3)C2)c(Cl)c1 (centres unmarked) [compound 139, 3-chloro-4-(3-((4-(1-cyclopentyl-1,2,3,4-tetrahydroisoquinolin-1-yl)piperidin-1-yl)methyl)azetidin-1-yl)benzonitrile]	0.073 µM	–
O=S(=O)(c1ccc(N2CC(F)(CN3CCC(C4(C5CCCC5)NCCc5ccccc54)CC3)C2)cc1)C1CC1 (centres unmarked) [compound 140, 1-cyclopentyl-1-(1-((1-(4-(cyclopropylsulfonyl)phenyl)-3-fluoroazetidin-3-yl)methyl)piperidin-4-yl)-1,2,3,4-tetrahydroisoquinoline]	0.104 µM	–
CCN1Cc2ccccc2C(C2CCCC2)(C2CCN(CC3CN(c4ccc(S(=O)(=O)c5ccnc(C)c5)cc4)C3)CC2)C1 (centres unmarked) [compound 154, 4-cyclopentyl-2-ethyl-4-(1-((1-(4-((2-methylpyridin-4-yl)sulfonyl)phenyl)azetidin-3-yl)methyl)piperidin-4-yl)-1,2,3,4-tetrahydroisoquinoline]	0.006 µM	–
CCc1cc(S(=O)(=O)c2ccc(N3CC(CN4CCC(C5(C6CCCC6)CN(CC)Cc6ccccc65)CC4)C3)cc2)ccn1 (centres unmarked) [compound 155, 4-cyclopentyl-2-ethyl-4-(1-((1-(4-((2-ethylpyridin-4-yl)sulfonyl)phenyl)azetidin-3-yl)methyl)piperidin-4-yl)-1,2,3,4-tetrahydroisoquinoline]	0.016 µM	–
CCN1Cc2ccccc2C(C2CCCC2)(C2CCN(S(=O)(=O)C3CN(c4ccc(C#N)cc4)C3)CC2)C1 (centres unmarked) [compound 159, 4-(3-((4-(4-cyclopentyl-2-ethyl-1,2,3,4-tetrahydroisoquinolin-4-yl)piperidin-1-yl)sulfonyl)azetidin-1-yl)benzonitrile]	–	No inhibition
